Experimental findings from ChEMBL document CHEMBL5360655, “Design, Synthesis, and Biological Evaluation of Novel P2X7 Receptor Antagonists for the Treatment of Septic Acute Kidney Injury” (J Med Chem, 2023) are described below.

Common to all, as to format: cell-based
Assay [1] concerns the target T1, P2X purinoceptor 7 (Homo sapiens) (UniProt Q99572).
T1 sequence (whole entry): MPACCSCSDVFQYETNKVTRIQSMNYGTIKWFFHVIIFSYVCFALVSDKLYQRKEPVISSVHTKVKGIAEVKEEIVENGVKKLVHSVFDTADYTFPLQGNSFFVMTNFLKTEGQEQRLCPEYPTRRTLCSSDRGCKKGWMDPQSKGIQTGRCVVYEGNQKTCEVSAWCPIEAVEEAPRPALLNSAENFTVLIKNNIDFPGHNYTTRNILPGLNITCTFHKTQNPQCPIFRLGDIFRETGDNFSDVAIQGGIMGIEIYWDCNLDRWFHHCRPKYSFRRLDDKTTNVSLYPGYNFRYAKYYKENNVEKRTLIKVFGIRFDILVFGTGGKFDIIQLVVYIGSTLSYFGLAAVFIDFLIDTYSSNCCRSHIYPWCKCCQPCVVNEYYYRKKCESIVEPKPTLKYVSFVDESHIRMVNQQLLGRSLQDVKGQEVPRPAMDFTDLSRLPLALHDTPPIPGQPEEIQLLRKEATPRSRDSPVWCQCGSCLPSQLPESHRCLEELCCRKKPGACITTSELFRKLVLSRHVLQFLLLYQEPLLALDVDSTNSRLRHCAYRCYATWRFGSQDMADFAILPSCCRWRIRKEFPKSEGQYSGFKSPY
The assay is described as follows: Antagonist activity at human P2X7 receptor expressed in HEK293 cells assessed as inhibition of ATP-induced receptor pore formation at 1 uM by propidium iodide dye uptake based fluorescence analysis.

Assay [2] has as its target T2, P2X purinoceptor 7 (Mus musculus) (UniProt Q9Z1M0).
T2 sequence (whole entry): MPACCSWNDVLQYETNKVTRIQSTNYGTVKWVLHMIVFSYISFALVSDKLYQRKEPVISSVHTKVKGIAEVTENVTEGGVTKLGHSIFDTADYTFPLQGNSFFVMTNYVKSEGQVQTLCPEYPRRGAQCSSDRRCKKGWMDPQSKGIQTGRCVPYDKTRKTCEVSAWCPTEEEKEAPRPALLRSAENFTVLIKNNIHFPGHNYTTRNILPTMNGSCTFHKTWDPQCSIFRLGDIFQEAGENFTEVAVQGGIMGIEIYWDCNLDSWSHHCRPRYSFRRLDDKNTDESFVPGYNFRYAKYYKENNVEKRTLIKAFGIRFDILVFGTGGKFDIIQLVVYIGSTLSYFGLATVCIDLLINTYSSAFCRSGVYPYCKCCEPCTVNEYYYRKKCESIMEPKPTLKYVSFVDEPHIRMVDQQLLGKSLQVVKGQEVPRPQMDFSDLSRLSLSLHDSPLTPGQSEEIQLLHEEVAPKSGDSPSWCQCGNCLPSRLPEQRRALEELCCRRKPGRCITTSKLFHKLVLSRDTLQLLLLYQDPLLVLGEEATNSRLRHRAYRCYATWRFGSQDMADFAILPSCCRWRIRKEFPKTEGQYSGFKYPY
The assay can be described thus: Antagonist activity at mouse P2X7 receptor expressed in HEK293 cells assessed as inhibition of ATP-induced receptor pore formation at 200 nM by propidium iodide dye uptake based fluorescence analysis.

Assay [3] addresses T1, P2X purinoceptor 7 (Homo sapiens). The assay can be described thus: Antagonist activity at human P2X7 receptor expressed in HEK293 cells assessed as inhibition of ATP-induced receptor pore formation at 200 nM by propidium iodide dye uptake based fluorescence analysis.
Assay [4] addresses T2, P2X purinoceptor 7 (Mus musculus). The assay can be described thus: Antagonist activity at mouse P2X7 receptor expressed in HEK293 cells assessed as inhibition of ATP-induced receptor pore formation at 1 uM by propidium iodide dye uptake based fluorescence analysis.
Assay [5] shares this target. The assay can be described thus: Antagonist activity at mouse P2X7 receptor expressed in HEK293 cells assessed as inhibition of ATP-induced receptor pore formation at 10 uM by propidium iodide dye uptake based fluorescence analysis.
Assay [6] has as its target T1, P2X purinoceptor 7 (Homo sapiens). The assay can be described thus: Antagonist activity at human P2X7 receptor expressed in HEK293 cells assessed as inhibition of ATP-induced receptor pore formation at 10 uM by propidium iodide dye uptake based fluorescence analysis.
For assay [7], the target named is T3, P2X purinoceptor 7 (Mus musculus, UniProt Q9Z1M0).
T3 sequence (Q9Z1M0 whole entry): T2 sequence (whole entry)
The assay can be described thus: Antagonist activity at mouse P2X7 receptor expressed in HEK293 cells assessed as inhibition of ATP-induced receptor pore formation by propidium iodide dye uptake based fluorescence analysis.

Assay [8] deals with T4, P2X purinoceptor 7 (Homo sapiens, UniProt Q99572).
T4 sequence (Q99572 whole entry): T1 sequence (whole entry)
The assay is described as follows: Antagonist activity at human P2X7 receptor expressed in HEK293 cells assessed as inhibition of ATP-induced receptor pore formation by propidium iodide dye uptake based fluorescence analysis.

Calls of active or inactive are those of the source. The rule behind the calls is not given here. A value given as a limit tells only on which side of the number the result lay.

One may read the inhibition as the relative decrease from the control value, in per cent. Turning to `CS(=O)(=O)c1ccc(-c2ncc(C(=O)NCc3cn(-c4ccc(Br)cn4)nn3)s2)cc1`, the inhibition in assay [1] is 33.3%; in assay [3] it was 12.4%. Besides, the inhibition entry in assay [2] and in assay [4] was “inactive” throughout.

For `O=C(NCc1cn(-c2cc(Cl)ccn2)nn1)c1ccccc1Cl`, the inhibition result in assay [5] and in assay [6] was “inactive” in each case.

`Nc1cccc(-c2ccc(Cl)c(C(=O)NCc3cn(-c4cc(Cl)ccn4)nn3)c2)c1`: the results for the inhibition in assay [1], in assay [2] and in assay [3] were 21.9%, 19.1% and 24.4%, respectively. Also, in assay [4], the inhibition result was “inactive”.

In general, IC50 refers to the concentration needed to halve the response being measured. Take `O=C(NCc1cn(-c2cc(Cl)ccn2)nn1)c1cc(-c2cccc3ncccc23)ccc1Cl`: the inhibition in assay [5] (filed as antagonist) was above 50%; in assay [1], 33.1%; in assay [2] (filed as antagonist), 66.7%; in assay [6] (filed as antagonist), above 50%; in assay [3], 13.6%; in assay [4] (filed as antagonist), 72.4%. In assay [7], the IC50 turned out to be 0.138 µM.

Regarding `CS(=O)(=O)c1ccc(-c2nc(C(=O)NCc3cn(-c4ccc(Br)cn4)nn3)cs2)cc1`, the results for the inhibition in assay [1] (filed as antagonist) and in assay [3] were 51.6% and 11%, respectively. For the same compound, the inhibition entry in assay [2] and in assay [4] was “inactive” each time. Besides, the IC50 in assay [8] turned out to be 0.811 µM.

For `CS(=O)(=O)c1cccc(-c2ccc(Cl)c(C(=O)NCc3cn(-c4cc(Cl)ccn4)nn3)c2)c1`, the inhibition in assay [5] (filed as antagonist) is above 50%; in assay [1] (filed as antagonist) it was 41.9%; in assay [6] (filed as antagonist) it was above 50%; in assay [4] (filed as antagonist), 49.6%. The inhibition result in assay [2] and in assay [3] was “inactive” each time.

`O=C(NCc1cn(-c2cc(Cl)ccn2)nn1)c1cc(-c2cccc3cc[nH]c23)ccc1Cl`: the IC50 in assay [7] was 0.351 µM. For the same compound, the inhibition result in assay [1] and in assay [3] was “inactive” in each case. In addition, the inhibition turned out to be 25.6% in assay [2] and 62.5% in assay [4] (filed as antagonist).

For the compound `CS(=O)(=O)c1ccc(-c2csc(C(=O)NCc3cn(-c4cc(Cl)ccn4)nn3)n2)cc1`, the IC50 in assay [7] was 0.166 µM. The inhibition in assay [1] (filed as antagonist) is 40.9%; in assay [2] (filed as antagonist) it was 55.2%; in assay [3], 5%; in assay [4] (filed as antagonist), 74%.

Consider `O=C(NCc1cn(-c2cc(Cl)ccn2)nn1)c1ccc(Cl)cc1`, for which the inhibition in assay [5] (filed as antagonist) is 62.8%. In assay [6], the inhibition entry is “inactive”.

For the compound `CS(=O)(=O)Nc1ccc(-c2ccc(Cl)c(C(=O)NCc3cn(-c4cc(Cl)ccn4)nn3)c2)cc1`, the inhibition result in assay [1], in assay [2] and in assay [3] was “inactive” each time. The inhibition in assay [4] (filed as antagonist) came out at 45.1%.

For `CS(=O)(=O)c1ccc(-c2nc(C(=O)NCc3cn(-c4cc(F)ccn4)nn3)cs2)cc1`, the inhibition in assay [1] is 23.2%; in assay [2] it was 23.3%; in assay [4] (filed as antagonist), 41.9%. Also, in assay [3], the inhibition result is “inactive”.

Regarding `CS(=O)(=O)c1ccc(-c2ncc(C(=O)NCc3cn(-c4cc(F)ccn4)nn3)s2)cc1`, in assay [7], the IC50 came to 0.196 µM. For the same compound, the inhibition in assay [1] (filed as antagonist) stood at 45.1%; in assay [2] (filed as antagonist) it was 68.4%; in assay [3], 37.8%; in assay [4] (filed as antagonist) it was 61.8%.

On to `O=C(NCc1cn(-c2cc(Cl)ccn2)nn1)c1ccc(C(F)(F)F)c(Br)c1`, for which the inhibition in assay [5] came out at 22.5%; in assay [6] (filed as antagonist), 53.5%.

Turning to `CS(=O)(=O)Nc1cccc(-c2ncc(C(=O)NCc3cn(-c4cc(Cl)ccn4)nn3)s2)c1`, the inhibition in assay [1] stood at 6.8%; in assay [4], 17.3%. Besides, the inhibition result in assay [2] and in assay [3] was “inactive” in each case.

Regarding `O=C(NCc1cn(-c2cc(Cl)ccn2)nn1)c1cc(Br)ccc1Cl`, the inhibition in assay [5] came to 10%; in assay [6] (filed as antagonist) it was 59.3%.

As to `CC(C)Cc1ccc(-c2ccc(Cl)c(C(=O)NCc3cn(-c4cc(Cl)ccn4)nn3)c2)cc1`, the IC50 in assay [7] is 0.409 µM. Also, the inhibition in assay [1] was found to be 39.2%; in assay [3], 20.7%; in assay [4] (filed as antagonist) it was 59.3%. For the same compound, the inhibition result in assay [2] was “inactive”.

As for `CS(=O)(=O)c1ccc(-c2ccc(Cl)c(C(=O)NCc3cn(-c4cc(Cl)ccn4)nn3)c2)cc1`, the inhibition in assay [5] (filed as antagonist) is above 50%; in assay [1] (filed as antagonist), 40%; in assay [2] (filed as antagonist) it was 66%; in assay [6] (filed as antagonist) it was above 50%; in assay [3], 22.9%; in assay [4] (filed as antagonist), 71%. Moreover, the IC50 in assay [7] was found to be 0.0991 µM.

For the compound `O=C(NCc1cn(-c2cc(Cl)ccn2)nn1)c1c(Cl)cccc1Br`, the inhibition was determined as 62.3% in assay [5] (filed as antagonist) and 23.1% in assay [6].

Regarding `Cc1cccc(Cl)c1C(=O)NCc1cn(-c2cc(Cl)ccn2)nn1`, in assay [5], the inhibition turned out to be 34.4%. The inhibition entry in assay [6] is “inactive”.

Take `O=C(NCc1cn(-c2cc(Cl)ccn2)nn1)c1ccc(C(F)(F)F)cc1Cl`: the inhibition turned out to be 39.3% in assay [5] and 45.1% in assay [6] (filed as antagonist).

As for `Cc1cc(F)ccc1-c1ccc(Cl)c(C(=O)NCc2cn(-c3cc(Cl)ccn3)nn2)c1`, the inhibition in assay [1] amounted to 23.3%; in assay [2], 17.8%; in assay [3] it was 13.4%; in assay [4], 9.2%.

For `Nc1cccc(-c2ncc(C(=O)NCc3cn(-c4cc(Cl)ccn4)nn3)s2)c1`, the inhibition in assay [1] (filed as antagonist) was 57.3%; in assay [2], 2.9%; in assay [3], 9.8%; in assay [4], 35.2%. Besides, in assay [8], the IC50 is 0.658 µM.

`O=C(NCc1cn(-c2cc(Cl)ccn2)nn1)c1cccc(C(F)(F)F)c1Cl`: the inhibition in assay [5] was 13.2%; in assay [6] (filed as antagonist), 46.5%.

For `Nc1ccc(-c2ncc(C(=O)NCc3cn(-c4cc(Cl)ccn4)nn3)s2)cc1`, the IC50 in assay [7] came to 0.188 µM. The inhibition in assay [1] stood at 39.2%; in assay [2] (filed as antagonist) it was 51.7%; in assay [3] (filed as antagonist) it was 46.2%; in assay [4] (filed as antagonist), 60.7%.

`O=C(NCc1cn(-c2cc(Cl)ccn2)nn1)c1cc(-c2cccc3[nH]ccc23)ccc1Cl`: the inhibition came out at 34.1% in assay [1], 15.6% in assay [3] and 10.2% in assay [4]. The inhibition result in assay [2] is “inactive”.

As to `CS(=O)(=O)c1cccc(-c2ncc(C(=O)NCc3cn(-c4cc(Cl)ccn4)nn3)s2)c1`, the results for the inhibition in assay [1] and in assay [4] were 36.7% and 25.8%, respectively. The inhibition entry in assay [2] and in assay [3] was “inactive” each time.

As to `CS(=O)(=O)c1ccc(-c2ncc(C(=O)NCc3cn(-c4cccc(Br)n4)nn3)s2)cc1`, the IC50 in assay [7] is 0.626 µM. Moreover, the inhibition in assay [1] came to 6.2%; in assay [4] (filed as antagonist), 52%. Further, the inhibition result in assay [2] and in assay [3] was “inactive” throughout.

As for `CS(=O)(=O)c1ccc(-c2nc(C(=O)NCc3cn(-c4cccc(Br)n4)nn3)cs2)cc1`, the inhibition in assay [1] (filed as antagonist) was found to be 53.8%; in assay [3], 10.1%. Further, the inhibition result in assay [2] and in assay [4] was “inactive” each time. For the same compound, the IC50 in assay [8] amounted to 0.71 µM.
